Experiment: Inhibition of full-length (FL)-PRMT5:MEP50 enzyme complex (unknown origin) expressed in Sf21 cells assessed as reduction in methylation activity using the N-terminus of H4 histone derived substrate peptide H4R3(Me1) by PRMT5:MEP50 biochemical assay
Parameters: species or system Homo sapiens

Structure (SMILES) | IC50
Nc1ncnc2c1nc1n2[C@@H]2O[C@@H]([C@@H](O)[C@H]2O)[C@@H](c2ccc(Cl)cc2)OCCO1 | 1 µM
Nc1ncnc2c1nc1n2[C@@H]2O[C@@H]([C@@H](O)[C@H]2O)[C@@H](c2ccc(F)c(F)c2)CCN1 | 5.7 µM

Source: ChEMBL document CHEMBL5143710, “Design and synthesis of unprecedented 9- and 10-membered cyclonucleosides with PRMT5 inhibitory activity” (Bioorg Med Chem, 2022)
